Data: paper PMC10508841, “Two jasmonic acid carboxyl methyltransferases in Gossypium hirsutum involved in MeJA biosynthesis may contribute to plant defense” (Frontiers in Plant Science, 2023)

What was measured:
[1] = biological target: T1, GhJMT1 (Gossypium hirsutum, UniProt A0ACM8RG93); assay: GC-MS product detection, recombinant E. coli supernatant; type: biochemical; conditions: SAM 1 uL of 100 mM, KCl, 25 °C, 30 min; empty vector control; product MeJA
T1 construct: gene JMT1; cloning primers encode MQVLHMN... ...ALTKKW (derived)
T1 sequence (A0ACM8RG93 1-371): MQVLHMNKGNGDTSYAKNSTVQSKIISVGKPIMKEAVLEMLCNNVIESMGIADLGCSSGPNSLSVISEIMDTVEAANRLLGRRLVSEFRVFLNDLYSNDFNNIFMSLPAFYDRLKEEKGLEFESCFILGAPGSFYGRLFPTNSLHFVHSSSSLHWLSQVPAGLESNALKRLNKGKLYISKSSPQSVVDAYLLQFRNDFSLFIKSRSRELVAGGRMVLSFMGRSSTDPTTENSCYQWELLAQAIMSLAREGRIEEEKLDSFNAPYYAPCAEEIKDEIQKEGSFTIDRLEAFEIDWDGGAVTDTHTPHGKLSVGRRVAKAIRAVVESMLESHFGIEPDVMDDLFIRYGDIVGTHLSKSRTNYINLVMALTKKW

[2] = biological target: T2, GhJMT2 (Gossypium hirsutum, UniProt A0A2K9REX3); assay: as above; type: biochemical; conditions: SAM 1 uL of 100 mM, KCl, 25 °C, 30 min; empty vector control; product MeJA
T2 construct: gene JMT2; cloning primers encode MEVVQVL... ...PMDVFLF (derived)
T2 sequence (A0A2K9REX3 1-372): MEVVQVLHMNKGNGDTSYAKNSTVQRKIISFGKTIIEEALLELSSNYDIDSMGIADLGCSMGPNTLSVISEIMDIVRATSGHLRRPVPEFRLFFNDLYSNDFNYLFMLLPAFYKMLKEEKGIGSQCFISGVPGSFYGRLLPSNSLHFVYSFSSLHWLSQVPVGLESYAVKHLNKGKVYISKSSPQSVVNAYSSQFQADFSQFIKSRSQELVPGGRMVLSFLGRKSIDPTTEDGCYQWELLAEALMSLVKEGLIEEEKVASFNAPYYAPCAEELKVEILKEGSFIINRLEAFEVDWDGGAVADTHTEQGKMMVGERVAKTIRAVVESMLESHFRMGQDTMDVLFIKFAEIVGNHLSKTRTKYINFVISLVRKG

CC/C=C\C[C@H]1C(=O)CC[C@@H]1CC(=O)O [jasmonic acid]
GC-MS product detection, recombinant E. coli supernatant [1]: recombinant GhJMT1 and GhJMT2 were both responsible for the conversion of JA to MeJA | GC-MS product detection, recombinant E. coli supernatant [2]: recombinant GhJMT1 and GhJMT2 were both responsible for the conversion of JA to MeJA
